Results from patent publication US7179792B2, “Combination product of a 1,4-benzothiepine 1,1-dioxide compound with at least one other active ingredient and the use of the product” (Sanofi-Aventis Deulschland GmbH, priority 2001, dated 2007).

System: Male Syrian hamsters (Mesocricetus auratus)
Assay: Plasma lipid levels in hamsters fed 0.1% cholesterol, oral treatment for 10 days
Type: in vivo
Settings: feed + 0.1% CH; for Plasma Cholesterol % / Plasma Triglycerides %: Cholesterol ctr. = 100; for Plasma Cholesterol / Plasma LDL / Plasma Triglycerides: plasma day 10
Method: The synergistic activity of the combination product of a compound of formula I with the other active ingredient was tested in an animal experiment. For this purpose, compound V1 from the compound of formula I was tested: Hamsters were used for the biological testing of the combination product of the invention. Male Syrian hamsters (Mesocricetus auratus) from 8 to 10 weeks of age were used for the experiment. The animals received a standard feed (Teklad 8604M) supplemented with 0.1% cholesterol. An additional normal control group received only standard feed. The test substances were administered orally by gavage once a day on 10 consecutive days, and the control group was treated with the vehicle. Feces were collected on days 5 and 6 of the experiment for bile acid analysis. Retroorbital blood was taken from the animals on day 10 of the experiment, and the lipid levels in the plasma were determined. Radioactive tracers were administered orally to the animals on day 9 of the experiment to determine the cholesterol absorption in analocy to the method described by Zilversmith et al. On day 11 of the experiment, the animals were sacrificed, and the animals' livers were removed for cholesterol analysis and preparation of microsomes. The 7α-hydroxylase activity was determined in the liver microsomes ex vivo by a modified method of Hylemon et al. [table] • K00004513 employed as stock solution (1 mg/ml in EtOH) • Substances are dissolved in 2% EtOH in a final concentration of 5%. • The solutions are then suspended with 0.4% potato starch. • Administration takes place 1× in the morning with 10 ml/kg Feed: Teklad 8604M CH: 032201 M Experimental animals: Male Syrian hamsters (Mesocricetus auratus) supplied by Harlan 100–120 g at the start of adaptation Measured Parameters: • Feed consumption • Animal weight (weekly) • Liver weight • Safety parameters (CH; TG; ALAT/ASAT; AP; HDULDL) • Liver cholesterol (HPLC)=1×500 mg in EtOH/KOH • CYP7 activity (liver microsomes as group pool of 0.5 g each—preparation on day of experiment) • Feces collected on day 5–7 for bile acid determination

SMILES | Plasma Cholesterol % (0.1 mg/kg/d oral) | Plasma Triglycerides % (0.1 mg/kg/d oral) | Plasma Cholesterol (0.1 mg/kg/d oral) | Plasma LDL (0.1 mg/kg/d oral) | Plasma Triglycerides (0.1 mg/kg/d oral) | Plasma Cholesterol % (0.3 mg/kg/d oral) | Plasma Triglycerides % (0.3 mg/kg/d oral) | Plasma Cholesterol (0.3 mg/kg/d oral) | Plasma LDL (0.3 mg/kg/d oral) | Plasma Triglycerides (0.3 mg/kg/d oral) | Plasma Cholesterol % (1 mg/kg/d oral) | Plasma Triglycerides % (1 mg/kg/d oral) | Plasma Cholesterol (1 mg/kg/d oral) | Plasma LDL (1 mg/kg/d oral) | Plasma Triglycerides (1 mg/kg/d oral)
O=C1[C@H](CC[C@H](O)c2ccc(F)cc2)[C@@H](c2ccc(O)cc2)N1c1ccc(F)cc1 [Ezetimibe, ezetimibe, reference compound] | 98% | 100% | 3.44 mmol/L | 1.04 mmol/L | 1.63 mmol/L |  |  |  |  |  |  |  |  |  | 
CCCC[C@]1(CC)CS(=O)(=O)c2ccc(N(C)C)cc2[C@@H](c2cccc(NC(=O)CCCCNC[C@H](O)[C@@H](O)[C@H](O)[C@H](O)CO)c2)[C@H]1O [V1] | 120% | 115% | 4.20 mmol/L | 1.06 mmol/L | 1.87 mmol/L | 114% | 108% | 4.01 mmol/L | 1.18 mmol/L | 1.75 mmol/L | 92% | 124% | 3.23 mmol/L | 0.92 mmol/L | 2.02 mmol/L
